Test results reported in ChEMBL document CHEMBL3870335, “Bioactivity of topologically confined gramicidin A dimers” (Bioorg Med Chem, 2017).
In brackets after ≈: the same amount, converted by molar mass.

Assays:
[1] = Stability of the compound in n-Octanol assessed as negative cotton effect at 50 uM by CD spectroscopic method; type: physicochemical
[2] = Stability of the compound in THF assessed as negative cotton effect at 50 uM by CD spectroscopic method; type: physicochemical
[3] = Hemolytic activity against human erythrocytes at 20 to 140 uM after 30 mins; type: ADME, cell-based; details: erythrocyte, 0.5 h
[4] = Stability of the compound in MeOH assessed as negative cotton effect at 50 uM by CD spectroscopic method; type: physicochemical
[5] = Stability of the compound in 1,4-dioxane assessed as negative cotton effect at 50 uM by CD spectroscopic method; type: physicochemical
[6] = Stability of the compound in acetonitrile assessed as negative cotton effect at 50 uM by CD spectroscopic method; type: physicochemical
[7] = tested on: Plasmodium falciparum; test: Antimalarial activity against chloroquine-resistant Plasmodium falciparum Dd2 after 72 hrs by NBT based LDH assay; type: functional; details: Dd2, 72 h
[8] = tested on: Klebsiella pneumoniae; test: Antimicrobial activity against Klebsiella pneumoniae ATCC 13883 after 16 to 20 hrs by broth microdilution method; type: functional
[9] = tested on: Pseudomonas aeruginosa; test: Antimicrobial activity against Pseudomonas aeruginosa ATCC 27853 after 16 to 20 hrs by broth microdilution method; type: functional
[10] = tested on: Plasmodium falciparum; test: Antimalarial activity against chloroquine-sensitive Plasmodium falciparum 3D7 after 72 hrs by NBT based LDH assay; type: functional; details: 3D7, 72 h
[11] = tested on: Escherichia coli; test: Antimicrobial activity against Escherichia coli ATCC 25922 after 16 to 20 hrs by broth microdilution method; type: functional
[12] = tested on: Enterococcus faecium; test: Antimicrobial activity against Enterococcus faecium DSMZ 20477 after 16 to 20 hrs by broth microdilution method; type: functional
[13] = tested on: Enterococcus faecalis; test: Antimicrobial activity against Enterococcus faecalis ATCC 29212 after 16 to 20 hrs by broth microdilution method; type: functional
[14] = tested on: Staphylococcus aureus; test: Antimicrobial activity against methicillin-resistant Staphylococcus aureus ATCC 43300 after 16 to 20 hrs by broth microdilution method; type: functional
[15] = tested on: Streptococcus pneumoniae; test: Antimicrobial activity against Streptococcus pneumoniae serotype 19A after 16 to 20 hrs by broth microdilution method; type: functional
[16] = tested on: Staphylococcus epidermidis; test: Antimicrobial activity against Staphylococcus epidermidis PP62A after 16 to 20 hrs by broth microdilution method; type: functional
[17] = tested on: Proteus mirabilis; test: Antimicrobial activity against Proteus mirabilis ATCC 7002 after 16 to 20 hrs by broth microdilution method; type: functional

SMILES | Stability [1] | Stability [2] | Activity [3] | Stability [4] | Stability [5] | Stability [6] | IC50 [7] [nM] | MIC [8] [µg/mL] | MIC [9] [µg/mL] | IC50 [10] [nM] | MIC [11] [µg/mL] | MIC [12] [µg/mL] | MIC [13] [µg/mL] | MIC [14] [µg/mL] | MIC [15] [µg/mL] | MIC [16] [µg/mL] | MIC [17] [µg/mL]
CC(=O)N[C@H](C(=O)NCC(=O)N[C@@H](C)C(=O)N[C@H](CC(C)C)C(=O)N[C@@H](C)C(=O)N[C@@H](C(=O)N[C@H](C(=O)N[C@@H](C(=O)N[C@@H](Cc1c[nH]c2ccccc12)C(=O)N[C@H](CC(C)C)C(=O)N[C@@H](Cc1c[nH]c2ccccc12)C(=O)N[C@H](CC(C)C)C(=O)N[C@@H](Cc1c[nH]c2ccccc12)C(=O)N[C@H](CC(C)C)C(=O)N[C@@H](Cc1c[nH]c2ccccc12)C(=O)NCCSSCCC(=O)N[C@H](C(=O)NCC(=O)N[C@@H](C)C(=O)N[C@H](CC(C)C)C(=O)N[C@@H](C)C(=O)N[C@@H](C(=O)N[C@H](C(=O)N[C@@H](C(=O)N[C@@H](Cc1c[nH]c2ccccc12)C(=O)N[C@H](CC(C)C)C(=O)N[C@@H](Cc1c[nH]c2ccccc12)C(=O)N[C@H](CC(C)C)C(=O)N[C@@H](Cc1c[nH]c2ccccc12)C(=O)N[C@H](CC(C)C)C(=O)N[C@@H](Cc1c[nH]c2ccccc12)C(=O)NCCO)C(C)C)C(C)C)C(C)C)C(C)C)C(C)C)C(C)C)C(C)C)C(C)C | Stable | Stable | Non-Toxic | Stable | Stable | Stable | – | – | – | – | – | – | – | – | – | – | –
CC(=O)N[C@H](C(=O)NCC(=O)N[C@@H](C)C(=O)N[C@H](CC(C)C)C(=O)N[C@@H](C)C(=O)N[C@@H](C(=O)N[C@H](C(=O)N[C@@H](C(=O)N[C@@H](Cc1c[nH]c2ccccc12)C(=O)N[C@H](CC(C)C)C(=O)N[C@@H](Cc1c[nH]c2ccccc12)C(=O)N[C@H](CC(C)C)C(=O)N[C@@H](Cc1c[nH]c2ccccc12)C(=O)N[C@H](CC(C)C)C(=O)N[C@@H](Cc1c[nH]c2ccccc12)C(=O)NCCSSCCNC(=O)[C@H](Cc1c[nH]c2ccccc12)NC(=O)[C@@H](CC(C)C)NC(=O)[C@H](Cc1c[nH]c2ccccc12)NC(=O)[C@@H](CC(C)C)NC(=O)[C@H](Cc1c[nH]c2ccccc12)NC(=O)[C@@H](CC(C)C)NC(=O)[C@H](Cc1c[nH]c2ccccc12)NC(=O)[C@H](NC(=O)[C@@H](NC(=O)[C@H](NC(=O)[C@H](C)NC(=O)[C@@H](CC(C)C)NC(=O)[C@H](C)NC(=O)CNC(=O)[C@@H](NC(C)=O)C(C)C)C(C)C)C(C)C)C(C)C)C(C)C)C(C)C)C(C)C)C(C)C | Stable | Stable | Non-Toxic | Stable | Stable | – | 0.2 | > 64 | > 64 | 10 | > 64 | > 64 | > 64 | > 64 | 0.1 (≈ 0.0262 µM) | > 64 | > 64
